Results from patent US10052320B2, “Substituted quinoxalines as FGFR kinase inhibitors” (ASTEX THERAPEUTICS LIMITED, priority 2011, dated 2018).

Tests used:
FGFR2 (h) = FGFR2 (h) (Homo sapiens, UniProt P21802); test: FGFR2 (enzymatic assay), TR-FRET; format: biochemical; conditions: read-out: FGFR 2 pIC50 (converted)
Experimental: In a final reaction volume of 30 μL, FGFR2 (h) (150 ng/ml) was incubated with 50 mM HEPES pH 7.5, 6 mM MnCl2, 1 mM DTT, 0.1 mM Na3VO4, 0.01% Triton-X-100, 500 nM Btn-Flt3 and 0.4 μM ATP in the presence of compound (1% DMSO final). […] Time-Resolved Fluorescence Resonance Energy Transfer (TR-FRET) signal (ex340 nm. Em 620 nm, em 655 nm) was measured afterwards and results are expressed in (Relative Fluorescence Units).

FGFR3 (h) = FGFR3 (h) (Homo sapiens, UniProt P22607); test: FGFR3 (enzymatic assay), TR-FRET; format: biochemical; conditions: read-out: FGFR 3 pIC50 (converted)
Sequence of FGFR3 (h) (P22607 23-806): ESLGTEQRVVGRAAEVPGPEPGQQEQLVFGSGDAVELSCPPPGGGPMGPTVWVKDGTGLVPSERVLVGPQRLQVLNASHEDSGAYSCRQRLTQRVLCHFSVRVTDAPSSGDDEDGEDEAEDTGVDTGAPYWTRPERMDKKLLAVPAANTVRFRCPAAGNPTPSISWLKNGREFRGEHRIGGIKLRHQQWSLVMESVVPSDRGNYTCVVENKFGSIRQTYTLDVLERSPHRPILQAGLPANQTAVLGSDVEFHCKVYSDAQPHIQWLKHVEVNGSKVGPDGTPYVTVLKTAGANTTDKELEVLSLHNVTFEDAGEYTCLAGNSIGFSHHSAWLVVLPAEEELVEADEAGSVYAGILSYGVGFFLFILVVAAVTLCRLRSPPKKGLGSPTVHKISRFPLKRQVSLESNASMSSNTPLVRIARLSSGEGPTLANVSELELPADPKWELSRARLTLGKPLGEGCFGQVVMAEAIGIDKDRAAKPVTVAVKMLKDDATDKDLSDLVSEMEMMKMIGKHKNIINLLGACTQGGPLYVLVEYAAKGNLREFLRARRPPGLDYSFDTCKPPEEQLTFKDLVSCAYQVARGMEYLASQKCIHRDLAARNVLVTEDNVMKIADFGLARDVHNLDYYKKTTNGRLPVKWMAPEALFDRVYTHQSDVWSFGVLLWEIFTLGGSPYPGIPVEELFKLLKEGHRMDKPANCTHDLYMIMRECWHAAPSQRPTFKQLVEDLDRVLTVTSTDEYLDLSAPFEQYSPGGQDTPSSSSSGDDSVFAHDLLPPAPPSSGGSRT
Experimental: In a final reaction volume of 30 μL, FGFR3 (h) (40 ng/ml) was incubated with 50 mM HEPES pH 7.5, 6 mM MnCl2, 1 mM DTT, 0.1 mM Na3VO4, 0.01% Triton-X-100, 500 nM Btn-Flt3 and 25 μM ATP in the presence of compound (1% DMSO final). […] Time-Resolved Fluorescence Resonance Energy Transfer (TR-FRET) signal (ex340 nm. Em 620 nm, em 655 nm) was measured afterwards and results are expressed in RFU (Relative Fluorescence Units).

FGFR4 (h) = FGFR4 (h) (Homo sapiens, UniProt P22455); test: FGFR4 (enzymatic assay), TR-FRET; format: biochemical; conditions: read-out: FGFR 4 pIC50 (converted)
Sequence of FGFR4 (h) (P22455 22-802): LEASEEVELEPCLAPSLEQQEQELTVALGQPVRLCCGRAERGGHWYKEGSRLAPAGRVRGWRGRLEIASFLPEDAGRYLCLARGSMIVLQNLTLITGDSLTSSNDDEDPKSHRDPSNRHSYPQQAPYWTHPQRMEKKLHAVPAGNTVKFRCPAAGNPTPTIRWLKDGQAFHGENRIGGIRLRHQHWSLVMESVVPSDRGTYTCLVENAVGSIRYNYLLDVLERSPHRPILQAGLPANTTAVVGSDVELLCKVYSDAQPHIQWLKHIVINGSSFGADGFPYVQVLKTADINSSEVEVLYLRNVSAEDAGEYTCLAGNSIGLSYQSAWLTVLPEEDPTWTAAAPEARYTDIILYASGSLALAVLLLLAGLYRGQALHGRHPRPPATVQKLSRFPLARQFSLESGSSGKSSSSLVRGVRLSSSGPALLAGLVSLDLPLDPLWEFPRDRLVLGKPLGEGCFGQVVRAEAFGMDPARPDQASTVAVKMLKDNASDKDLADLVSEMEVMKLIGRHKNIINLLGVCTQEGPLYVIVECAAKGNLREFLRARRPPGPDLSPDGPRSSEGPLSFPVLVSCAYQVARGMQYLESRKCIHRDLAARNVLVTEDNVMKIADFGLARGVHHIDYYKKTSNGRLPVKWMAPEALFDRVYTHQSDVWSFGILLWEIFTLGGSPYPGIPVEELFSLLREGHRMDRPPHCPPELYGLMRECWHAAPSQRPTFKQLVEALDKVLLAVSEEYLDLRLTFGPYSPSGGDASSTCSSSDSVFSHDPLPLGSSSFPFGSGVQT
Experimental: In a final reaction volume of 30 μL, FGFR4 (h) (60 ng/ml) was incubated with 50 mM HEPES pH 7.5, 6 mM MnCl2, 1 mM DTT, 0.1 mM Na3VO4, 0.01% Triton-X-100, 500 nM Btn-Flt3 and 5 μM ATP in the presence of compound (1% DMSO final). […] Time-Resolved Fluorescence Resonance Energy Transfer (TR-FRET) signal (ex340 nm. Em 620 nm, em 655 nm) was measured afterwards and results are expressed in RFU (Relative Fluorescence Units).

[1] = target: Ba/F3-FGFR1-transfected cells (Homo sapiens, UniProt P11362); test: Ba/F3-FGFR1 (minus IL3) cellular proliferation assay, Alamar Blue; format: cell-based; conditions: minus IL3, 384 well
Sequence of Ba/F3-FGFR1-transfected cells (P11362 whole entry, change not shown): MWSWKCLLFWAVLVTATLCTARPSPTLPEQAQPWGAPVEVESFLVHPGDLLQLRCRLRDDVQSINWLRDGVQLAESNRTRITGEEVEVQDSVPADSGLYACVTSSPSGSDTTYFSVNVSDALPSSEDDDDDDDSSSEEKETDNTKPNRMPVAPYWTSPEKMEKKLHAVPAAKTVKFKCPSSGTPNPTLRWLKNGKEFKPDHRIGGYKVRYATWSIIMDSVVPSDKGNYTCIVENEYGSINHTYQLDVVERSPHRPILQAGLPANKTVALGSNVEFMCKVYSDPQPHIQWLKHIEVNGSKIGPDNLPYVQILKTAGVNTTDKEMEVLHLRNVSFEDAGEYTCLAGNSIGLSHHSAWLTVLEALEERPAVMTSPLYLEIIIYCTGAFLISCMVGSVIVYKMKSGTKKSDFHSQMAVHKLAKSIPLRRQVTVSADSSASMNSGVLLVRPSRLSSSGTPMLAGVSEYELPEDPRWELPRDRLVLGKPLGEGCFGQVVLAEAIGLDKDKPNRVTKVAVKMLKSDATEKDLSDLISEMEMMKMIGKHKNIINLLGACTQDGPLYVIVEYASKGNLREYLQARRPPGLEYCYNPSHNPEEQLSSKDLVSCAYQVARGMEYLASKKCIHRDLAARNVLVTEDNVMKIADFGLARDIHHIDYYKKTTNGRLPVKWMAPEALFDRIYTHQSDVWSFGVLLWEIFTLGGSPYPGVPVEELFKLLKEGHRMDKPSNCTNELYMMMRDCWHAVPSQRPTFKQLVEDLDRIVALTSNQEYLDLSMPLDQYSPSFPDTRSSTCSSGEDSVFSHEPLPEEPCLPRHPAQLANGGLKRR
How it was run: (§1)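 Proliferation is estimated from Alamar Blue fluorescence after cells grow for one day with test compound in 10% FBS medium at 37 °C, with 4 h dye incubation before reading.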

[2] = system: Ba/F3-FGFR1-transfected cells in the presence of 10 ng/ml murine IL3; test: Ba/F3-FGFR1 (plus IL3) cellular proliferation counterscreen, Alamar Blue; format: cell-based; conditions: Mus musculus; plus IL3, 384 well; read-out: BAF3-FGFR 1 (PLUS IL3) 384 well pIC50 (converted)
How it was run: as §1

[3] = target: Ba/F3-KDR-transfected cells (Homo sapiens, UniProt P35968); test: Ba/F3-KDR (minus IL3) cellular proliferation assay, Alamar Blue; format: cell-based; conditions: minus IL3
Sequence of Ba/F3-KDR-transfected cells (P35968 whole entry, change not shown): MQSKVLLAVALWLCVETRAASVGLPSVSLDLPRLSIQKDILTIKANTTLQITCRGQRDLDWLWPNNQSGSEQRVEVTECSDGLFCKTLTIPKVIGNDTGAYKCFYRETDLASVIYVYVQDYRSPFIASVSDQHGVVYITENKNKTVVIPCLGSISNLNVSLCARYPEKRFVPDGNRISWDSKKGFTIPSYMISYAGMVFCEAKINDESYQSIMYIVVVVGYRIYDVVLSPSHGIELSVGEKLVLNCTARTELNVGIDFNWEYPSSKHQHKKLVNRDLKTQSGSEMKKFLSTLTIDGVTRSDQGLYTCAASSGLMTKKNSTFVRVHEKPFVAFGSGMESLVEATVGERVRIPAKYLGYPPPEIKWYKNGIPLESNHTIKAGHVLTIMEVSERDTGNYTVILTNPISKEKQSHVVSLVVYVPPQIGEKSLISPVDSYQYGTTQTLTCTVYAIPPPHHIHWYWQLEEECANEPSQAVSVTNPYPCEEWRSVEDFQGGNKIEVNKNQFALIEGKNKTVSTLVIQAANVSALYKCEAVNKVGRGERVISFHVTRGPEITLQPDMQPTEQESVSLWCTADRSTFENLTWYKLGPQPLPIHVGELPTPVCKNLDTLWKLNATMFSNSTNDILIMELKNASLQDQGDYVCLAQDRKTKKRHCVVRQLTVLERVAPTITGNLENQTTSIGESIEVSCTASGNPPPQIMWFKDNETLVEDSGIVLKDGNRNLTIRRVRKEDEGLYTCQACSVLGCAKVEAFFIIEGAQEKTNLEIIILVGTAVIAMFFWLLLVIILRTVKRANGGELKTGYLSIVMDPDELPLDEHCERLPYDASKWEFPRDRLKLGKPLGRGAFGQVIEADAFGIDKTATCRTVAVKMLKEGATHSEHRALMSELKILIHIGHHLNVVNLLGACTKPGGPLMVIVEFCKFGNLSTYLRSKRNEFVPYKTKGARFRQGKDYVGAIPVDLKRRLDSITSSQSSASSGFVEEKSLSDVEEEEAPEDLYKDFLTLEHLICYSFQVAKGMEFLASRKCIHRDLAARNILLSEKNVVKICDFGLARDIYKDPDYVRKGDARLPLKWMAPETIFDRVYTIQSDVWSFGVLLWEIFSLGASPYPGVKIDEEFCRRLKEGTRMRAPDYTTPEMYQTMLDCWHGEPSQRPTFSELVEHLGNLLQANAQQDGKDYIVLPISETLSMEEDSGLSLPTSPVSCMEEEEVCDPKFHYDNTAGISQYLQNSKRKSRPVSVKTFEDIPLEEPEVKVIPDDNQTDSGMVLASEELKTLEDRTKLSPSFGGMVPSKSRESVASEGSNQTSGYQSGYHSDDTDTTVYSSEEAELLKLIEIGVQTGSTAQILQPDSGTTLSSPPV
How it was run: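 Measured with and without 10 ng/ml murine IL3: Ba/F3-KDR cells treated 24 h with compound, then 4 h Alamar Blue, fluorescence read at 540/590 nm.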

Sequence of FGFR2 (h) (P21802 22-821): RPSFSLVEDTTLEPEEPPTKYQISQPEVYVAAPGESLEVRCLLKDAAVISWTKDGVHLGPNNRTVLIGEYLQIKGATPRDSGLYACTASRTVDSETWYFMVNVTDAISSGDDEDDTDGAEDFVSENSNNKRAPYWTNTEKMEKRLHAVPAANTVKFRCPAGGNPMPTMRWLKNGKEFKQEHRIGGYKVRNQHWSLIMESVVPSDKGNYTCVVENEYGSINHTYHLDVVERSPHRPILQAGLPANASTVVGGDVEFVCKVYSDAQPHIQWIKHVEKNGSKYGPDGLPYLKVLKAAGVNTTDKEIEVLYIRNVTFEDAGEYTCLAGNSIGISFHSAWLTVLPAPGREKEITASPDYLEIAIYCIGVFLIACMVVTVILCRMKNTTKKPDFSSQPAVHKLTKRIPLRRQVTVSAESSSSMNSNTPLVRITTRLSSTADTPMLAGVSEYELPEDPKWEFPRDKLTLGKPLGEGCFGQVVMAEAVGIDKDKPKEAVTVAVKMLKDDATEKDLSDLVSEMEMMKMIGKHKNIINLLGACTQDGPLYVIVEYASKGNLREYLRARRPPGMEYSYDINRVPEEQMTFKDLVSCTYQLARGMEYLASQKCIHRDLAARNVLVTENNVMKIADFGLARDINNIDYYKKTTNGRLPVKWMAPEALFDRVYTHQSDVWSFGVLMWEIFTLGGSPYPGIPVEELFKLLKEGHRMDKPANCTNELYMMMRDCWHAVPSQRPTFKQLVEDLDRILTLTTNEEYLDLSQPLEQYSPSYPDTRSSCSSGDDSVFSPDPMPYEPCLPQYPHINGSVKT

| SMILES | IC50 (FGFR2 (h)) [nM] | IC50 (FGFR3 (h)) [nM] | IC50 (FGFR4 (h)) [nM] | BAF3-FGFR 1 (MIN IL3) 384 well pIC50 [1] | IC50 [2] [nM] | BAF3-KDR (MIN IL3) 384 well pIC50 [3] | melting point [°C] |
| --- | --- | --- | --- | --- | --- | --- | --- |
| COc1cc(OC)cc(N(CCCO)c2ccc3ncc(-c4ccnc(F)c4)nc3c2)c1 [Compound 142] | 25.1 | 7.41 | 64.6 | 5.64 | > 10000 | <5 | 155 |
| COc1cc(OC)cc(N(CCCNCC(F)(F)F)c2ccc3ncc(-c4ccnc(F)c4)nc3c2)c1 [Compound 144] | ~85.1 | 56.2 | 468 | <5 | > 10000 | <5 | 128 |
| COc1cc(OC)cc(N(CCCNCC(F)(F)F)c2ccc3ncc(-c4ccnc(Cl)c4)nc3c2)c1 [Compound 145] | 166 | 97.7 | 871 | <5 | > 10000 | <5 | 130 |
| COc1cc(OC)cc(N(CCCNCC(F)(F)F)c2ccc3ncc(-c4ccnc(C(=O)NCCCN)c4)nc3c2)c1 [Compound 148] | 58.9 | 61.7 | 603 | <5 | > 10000 | <5 | 87 |
| COc1cc(OC)cc(N(CCCO)c2ccc3ncc(-c4cccnc4F)nc3c2)c1 [Compound 149] | 102 | 35.5 | 166 | 5.32 | > 10000 | <5 | 115 |
| COc1cc(OC)cc(N(CCCNCC(F)(F)F)c2ccc3ncc(-c4ccnc(C(=O)NCCCCCO)c4)nc3c2)c1 [Compound 150] | 70.8 | 49 | 224 | 5.16 | > 10000 | <5 | 95 |
| COc1cc(OC)cc(N(CCO)c2ccc3ncc(-c4ccccc4CCO)nc3c2)c1 [Compound 151] | 513 | 200 | 891 | 5.52 | > 10000 | <5 | 133 |
| COc1cc(OC)cc(N(CCO)c2ccc3ncc(-c4ccc(N5CCN(C(=O)OC(C)(C)C)CC5)cc4)nc3c2)c1 [Compound 156] | 95.5 | 24 | 95.5 | 5.7 | 8910 | <5 | 80 |
| COc1cc(OC)cc(N(CCO)c2ccc3ncc(-c4ccc(N5CCN(C)CC5)nc4)nc3c2)c1 [Compound 163] | 15.8 | 7.94 | 120 | 6.15 | ~10000 | 5.3 | 160 |
| COc1cc(OC)cc(N(CCO)c2ccc3ncc(-c4ccc(N5CCNCC5)nc4)nc3c2)c1 [Compound 165] | 12.6 | 4.9 | 28.8 | 6.56 | 6610 | 5.36 | 171 |
| COc1cc(OC)cc(N(CCNC(C)C)c2ccc3ncc(-n4cnc(COC(C)=O)c4)nc3c2)c1 [Compound 167] | 7.76 | 11 | 31.6 | 7.13 | > 10000 | <5 | 56 |
| COc1cc(OC)cc(N(CCNC(C)C)c2ccc3ncc(-c4ccc(N5CCOCC5)nc4)nc3c2)c1 [Compound 168] | 3.72 | 3.24 | 8.32 | 7.04 | 7760 | 5.75 | 135 |
| COc1cc(OC)cc(N(CCN2CCOCC2)c2ccc3ncc(-c4ccc(N)nc4)nc3c2)c1 [Compound 169] | 15.8 | 6.46 | 53.7 | 6.37 | > 10000 | 5.1 | 164 |
| COc1cc(OC)cc(N(CCO)c2ccc3ncc(/C(C)=N/OC(C)(C)C)nc3c2)c1 [Compound 171] | 724 | 501 | 871 | <5 | > 10000 | <5 | 147 |
| COc1cc(OC)cc(N(CCO)c2ccc3ncc(C4=CCN(C(=O)OC(C)(C)C)C4)nc3c2)c1 [Compound 173] | 32.4 | 10.2 | 100 | 5.68 | > 10000 | <5 | 142 |
| COc1cc(OC)cc(N(CCO)c2ccc3ncc(C4=CCN(C(=O)OC(C)(C)C)CC4)nc3c2)c1 [Compound 178] | 12.3 | 2.88 | 56.2 | 6.07 | > 10000 | <5 | 150 |
| COc1cc(OC)cc(N(CCNC(C)C)c2ccc3ncc(C(=O)NCCCN4CCCCC4)nc3c2)c1 [Compound 182] | 26.3 | 126 | 603 | 5.89 | > 10000 | <5 | 121 |
| COc1cc(OC)cc(N(CC#Cc2ncccc2OC)c2ccc3ncc(-c4cccnc4)nc3c2)c1 [Compound 183] | 81.3 | 162 | 427 | 6.76 | > 10000 | <5 | 141 |
